According to US4946852A, “4(R)-substituted 6(S)-phenoxymethyl-, 6(S)-β-phenylethyl- and 6(S)-β-styryl-tetrahydropyran-2-ones, a highly stereoselective process for their preparation, pharmaceutical products based on these compounds, and their use” (Hoechst Aktiengesellschaft, priority 1986, dated 1990):

Biological target: T1, HMG-CoA reductase (Rattus norvegicus, UniProt P51639)
T1 sequence (P51639 1-887): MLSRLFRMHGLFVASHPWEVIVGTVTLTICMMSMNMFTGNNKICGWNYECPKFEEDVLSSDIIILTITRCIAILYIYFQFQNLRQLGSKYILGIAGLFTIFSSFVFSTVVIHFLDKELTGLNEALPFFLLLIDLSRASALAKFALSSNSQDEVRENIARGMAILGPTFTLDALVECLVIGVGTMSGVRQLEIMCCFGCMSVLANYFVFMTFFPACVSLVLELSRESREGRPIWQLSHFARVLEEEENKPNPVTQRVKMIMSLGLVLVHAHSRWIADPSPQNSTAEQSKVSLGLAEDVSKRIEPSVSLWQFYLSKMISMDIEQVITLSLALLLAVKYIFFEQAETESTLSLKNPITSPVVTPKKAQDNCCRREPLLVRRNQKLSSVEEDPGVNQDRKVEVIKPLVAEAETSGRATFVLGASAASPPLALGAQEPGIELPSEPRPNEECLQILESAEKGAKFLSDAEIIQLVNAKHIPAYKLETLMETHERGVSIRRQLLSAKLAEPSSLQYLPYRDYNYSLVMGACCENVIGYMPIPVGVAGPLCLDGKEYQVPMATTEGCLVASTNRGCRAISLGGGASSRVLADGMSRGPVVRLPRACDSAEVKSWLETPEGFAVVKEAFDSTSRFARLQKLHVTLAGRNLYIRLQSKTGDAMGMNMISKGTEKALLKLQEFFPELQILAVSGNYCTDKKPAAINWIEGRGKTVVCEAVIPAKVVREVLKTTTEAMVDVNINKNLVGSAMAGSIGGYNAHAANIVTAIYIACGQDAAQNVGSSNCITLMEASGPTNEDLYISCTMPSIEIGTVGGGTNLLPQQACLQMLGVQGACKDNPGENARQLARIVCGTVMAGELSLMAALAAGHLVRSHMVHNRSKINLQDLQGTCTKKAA
Test: Inhibition of HMG-CoA reductase activity on solubilized enzyme preparations from rat liver microsomes
Assay type: biochemical
Conditions: solubilized rat-liver microsomal enzyme; for IC50: molar concentration required for 50% inhibition, (S,R) 14C-HMG-CoA substrate, mean of 3 parallel samples

| Compound | inhibition (at 10^-6) [%] | inhibition (at 10^-7) [%] | IC50 [nM] |
| --- | --- | --- | --- |
| Cc1cc(C)c(OC[C@@H]2C[C@@H](SC[C@H](N)C(=O)O)CC(=O)O2)c(CCCOc2ccc(F)cc2)c1 [Ve, 6S-({[2-(4-Fluorophenoxy-3-propyl)]-4,6-dimethylphenoxy}methyl)-4R-[(R)-2-amino-3-mercaptyl-propionic acid]-3,4,5,6-tetrahydro-2H-pyran-2-one] | 37 | 24 | – |
| Cc1cc(C)c(OC[C@@H]2C[C@@H](O)CC(=O)O2)c(CCCOc2ccc(F)cc2)c1 [A, 6(S)-{4,6-dimethyl-2-[3-(4-fluorophenoxy)propyl]phenoxymethyl}-3,4,5,6-tetrahydro-4(R)-hydroxy-2H-pyran-2-one, reference compound] | – | – | 1000 |
| Cc1cc(C)c(OC[C@@H](O)C[C@@H](O)CC(=O)O)c(CCCOc2ccc(F)cc2)c1 [reference compound] | – | – | 200 |
| Cc1cc(C)c(OC[C@@H]2C[C@@H](SCc3ccccc3)CC(=O)O2)c(CCCOc2ccc(F)cc2)c1 [Vc, 6S-({[2-(4-Fluorophenoxy-3-propyl)]-4,6-dimethylphenoxy}methyl)-4R-benzylmercapto-3,4,5,6-tetrahydro-2H-pyran-2-one] | – | – | ~100000 |
| CC(=O)S[C@H]1CC(=O)O[C@H](COc2c(C)cc(C)cc2CCCOc2ccc(F)cc2)C1 [Va, 6S-({[2-(4-Fluorophenoxy-3-propyl)]-4,6-dimethylphenoxy}methyl)-4R-acetylmercapto-3,4,5,6-tetrahydro-2H-pyran-2-one] | – | – | 300 |
| Cc1cc(C)c(OC[C@@H]2C[C@@H](SCCO)CC(=O)O2)c(CCCOc2ccc(F)cc2)c1 [Vd, 6S-({[2-(4-Fluorophenoxy-3-propyl)]-4,6-dimethylphenoxy}methyl)-4R-β-hydroxyethylmercapto-3,4,5,6-tetrahydro-2H-pyran-2-one] | – | – | 1000 |
